# Activity calls are given as the source filed them. Cut-off read from the data, not from the text of the source, for most assays here: actives have a measured IC50 and inactives only a lower limit.
# Assays:
# [1] = target: T1, DNA repair and recombination protein RAD54-like (Homo sapiens, UniProt Q92698); experiment: inhibitors of human RAD54 branch migration, confirmation, biochemical, fluorescence, cherry-picked samples, dose series (AID 651657); assay type: functional
# T1 sequence (Q92698 whole entry): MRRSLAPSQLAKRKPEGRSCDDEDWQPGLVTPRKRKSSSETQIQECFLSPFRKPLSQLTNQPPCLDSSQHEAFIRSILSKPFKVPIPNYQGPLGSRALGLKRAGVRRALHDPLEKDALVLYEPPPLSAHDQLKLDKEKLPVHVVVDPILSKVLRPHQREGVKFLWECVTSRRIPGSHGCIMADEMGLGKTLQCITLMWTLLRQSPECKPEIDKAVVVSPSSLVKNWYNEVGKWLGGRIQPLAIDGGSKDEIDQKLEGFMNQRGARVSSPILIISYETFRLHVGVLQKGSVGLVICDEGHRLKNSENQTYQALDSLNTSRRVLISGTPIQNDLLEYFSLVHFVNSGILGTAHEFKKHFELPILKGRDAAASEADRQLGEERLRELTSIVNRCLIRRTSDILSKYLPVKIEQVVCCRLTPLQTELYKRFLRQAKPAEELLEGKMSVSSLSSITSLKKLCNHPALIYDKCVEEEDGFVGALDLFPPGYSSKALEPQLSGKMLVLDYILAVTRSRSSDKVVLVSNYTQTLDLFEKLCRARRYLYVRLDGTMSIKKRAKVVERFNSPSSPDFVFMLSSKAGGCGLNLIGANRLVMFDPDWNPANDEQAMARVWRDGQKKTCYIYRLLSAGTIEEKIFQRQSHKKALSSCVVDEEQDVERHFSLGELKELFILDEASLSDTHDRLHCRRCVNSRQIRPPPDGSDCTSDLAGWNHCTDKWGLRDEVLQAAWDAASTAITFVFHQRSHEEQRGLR
# [2] = target: T2, Sentrin-specific protease 6 (Homo sapiens, UniProt Q9GZR1); assay type: functional;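 note: Luminescence-based dose-response confirmatory assay of SENP6 inhibition, following up an ultra-high-throughput screen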
# T2 sequence (Q9GZR1 whole entry): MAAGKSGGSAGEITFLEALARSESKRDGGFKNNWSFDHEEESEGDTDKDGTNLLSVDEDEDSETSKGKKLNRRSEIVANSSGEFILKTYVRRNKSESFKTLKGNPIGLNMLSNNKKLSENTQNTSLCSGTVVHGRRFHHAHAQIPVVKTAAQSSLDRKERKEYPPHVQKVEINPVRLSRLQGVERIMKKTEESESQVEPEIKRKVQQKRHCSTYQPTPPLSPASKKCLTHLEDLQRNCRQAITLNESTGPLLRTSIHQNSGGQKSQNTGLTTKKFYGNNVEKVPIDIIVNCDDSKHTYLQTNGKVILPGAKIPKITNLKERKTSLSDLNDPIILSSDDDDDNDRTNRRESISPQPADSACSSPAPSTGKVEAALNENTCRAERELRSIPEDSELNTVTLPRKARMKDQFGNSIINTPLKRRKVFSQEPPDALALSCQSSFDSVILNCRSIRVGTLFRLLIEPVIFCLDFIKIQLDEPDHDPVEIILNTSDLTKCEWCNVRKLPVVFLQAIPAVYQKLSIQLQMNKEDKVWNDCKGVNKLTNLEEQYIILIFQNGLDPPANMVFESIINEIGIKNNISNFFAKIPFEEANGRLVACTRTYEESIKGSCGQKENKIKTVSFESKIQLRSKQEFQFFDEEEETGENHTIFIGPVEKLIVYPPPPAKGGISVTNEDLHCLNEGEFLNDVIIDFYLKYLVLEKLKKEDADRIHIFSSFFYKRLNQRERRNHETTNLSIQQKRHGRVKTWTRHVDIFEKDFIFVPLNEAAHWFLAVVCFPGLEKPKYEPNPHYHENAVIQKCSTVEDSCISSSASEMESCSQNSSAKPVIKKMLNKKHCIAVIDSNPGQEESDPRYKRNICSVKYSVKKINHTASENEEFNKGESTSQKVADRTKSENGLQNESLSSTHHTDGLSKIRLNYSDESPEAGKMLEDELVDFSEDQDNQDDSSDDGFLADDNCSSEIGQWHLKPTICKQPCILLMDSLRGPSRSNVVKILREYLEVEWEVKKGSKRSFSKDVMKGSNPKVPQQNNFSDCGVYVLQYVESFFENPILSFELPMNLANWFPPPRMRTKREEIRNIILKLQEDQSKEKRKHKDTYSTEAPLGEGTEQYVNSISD
# [3] = target: T3, Sentrin-specific protease 7 (Homo sapiens, UniProt Q9BQF6); assay type: functional;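 note: Luminescence-based dose-response confirmation of ultra-high-throughput screening hits, measuring inhibition of SENP7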
# T3 sequence (Q9BQF6 whole entry): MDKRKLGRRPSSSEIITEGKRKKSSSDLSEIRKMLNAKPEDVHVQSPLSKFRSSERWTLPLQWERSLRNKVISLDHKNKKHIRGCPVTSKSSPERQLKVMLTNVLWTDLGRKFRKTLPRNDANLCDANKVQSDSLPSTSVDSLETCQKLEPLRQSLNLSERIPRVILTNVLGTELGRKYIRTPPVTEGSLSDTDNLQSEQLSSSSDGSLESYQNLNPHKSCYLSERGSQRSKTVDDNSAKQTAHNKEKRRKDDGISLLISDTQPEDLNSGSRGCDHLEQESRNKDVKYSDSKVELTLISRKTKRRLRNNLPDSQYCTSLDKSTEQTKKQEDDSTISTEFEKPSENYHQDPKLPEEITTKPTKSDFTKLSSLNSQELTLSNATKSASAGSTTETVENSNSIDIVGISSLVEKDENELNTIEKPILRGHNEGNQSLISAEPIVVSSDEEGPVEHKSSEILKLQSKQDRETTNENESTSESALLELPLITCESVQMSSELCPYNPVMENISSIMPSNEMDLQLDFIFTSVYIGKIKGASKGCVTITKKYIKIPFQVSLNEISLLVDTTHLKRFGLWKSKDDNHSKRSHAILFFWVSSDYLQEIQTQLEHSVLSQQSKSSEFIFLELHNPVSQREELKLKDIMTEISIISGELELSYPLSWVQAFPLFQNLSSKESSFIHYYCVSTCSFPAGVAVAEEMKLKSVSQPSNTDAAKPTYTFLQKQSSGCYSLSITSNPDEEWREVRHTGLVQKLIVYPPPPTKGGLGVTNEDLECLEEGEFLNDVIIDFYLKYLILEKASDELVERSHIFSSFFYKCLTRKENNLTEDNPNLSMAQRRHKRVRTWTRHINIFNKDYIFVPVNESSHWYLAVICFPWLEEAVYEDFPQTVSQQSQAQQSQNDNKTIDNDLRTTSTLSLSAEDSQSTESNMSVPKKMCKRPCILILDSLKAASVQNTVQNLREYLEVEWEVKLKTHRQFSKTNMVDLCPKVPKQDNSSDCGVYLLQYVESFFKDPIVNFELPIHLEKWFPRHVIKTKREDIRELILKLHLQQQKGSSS
# [4] = target: T4, Caspase-3 (Homo sapiens, UniProt P42574); assay type: functional;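 note: Dose-response selectivity test against caspase-3 for candidate inhibitors of sentrin-specific proteases (SENPs)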
# T4 sequence (P42574 whole entry): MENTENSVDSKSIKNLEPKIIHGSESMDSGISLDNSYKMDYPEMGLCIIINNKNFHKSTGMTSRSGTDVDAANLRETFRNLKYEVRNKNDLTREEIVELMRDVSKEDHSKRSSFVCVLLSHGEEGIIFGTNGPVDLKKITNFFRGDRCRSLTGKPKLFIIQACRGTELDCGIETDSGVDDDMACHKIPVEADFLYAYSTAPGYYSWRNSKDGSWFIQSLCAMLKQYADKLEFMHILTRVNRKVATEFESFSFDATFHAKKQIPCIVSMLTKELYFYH
# [5] = target: T5, Sentrin-specific protease 8 (Homo sapiens, UniProt Q96LD8); assay type: functional;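 note: luminescence read-out of SENP8 inhibition, dose-response confirmation following an ultra-high-throughput screen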
# T5 sequence (Q96LD8 whole entry): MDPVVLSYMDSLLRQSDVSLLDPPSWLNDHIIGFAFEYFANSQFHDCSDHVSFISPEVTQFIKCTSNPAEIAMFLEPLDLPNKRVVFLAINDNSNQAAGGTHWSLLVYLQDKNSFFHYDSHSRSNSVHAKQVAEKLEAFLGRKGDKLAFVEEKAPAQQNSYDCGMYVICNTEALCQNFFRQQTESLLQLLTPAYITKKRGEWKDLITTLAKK
# [6] = target: T6, Mannose-6-phosphate isomerase (Homo sapiens, UniProt P34949); experiment: human PMI inhibitors, high substrate, primary screen, biochemical, fluorescence intensity, high mannose 6-phosphate (AID 1220)
# T6 sequence (P34949 whole entry): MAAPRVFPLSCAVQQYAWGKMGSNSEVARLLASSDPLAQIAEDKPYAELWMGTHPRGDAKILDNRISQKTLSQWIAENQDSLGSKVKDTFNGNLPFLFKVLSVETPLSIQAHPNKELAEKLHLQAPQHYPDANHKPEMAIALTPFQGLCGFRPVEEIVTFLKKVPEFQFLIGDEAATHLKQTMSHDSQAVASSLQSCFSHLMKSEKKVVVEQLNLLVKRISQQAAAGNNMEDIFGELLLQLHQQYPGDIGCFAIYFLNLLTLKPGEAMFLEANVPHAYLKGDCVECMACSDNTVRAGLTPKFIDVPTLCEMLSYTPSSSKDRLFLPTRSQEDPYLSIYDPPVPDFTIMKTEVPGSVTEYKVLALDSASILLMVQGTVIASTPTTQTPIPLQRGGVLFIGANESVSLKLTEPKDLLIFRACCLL
# [7] = target: T7, Protein skinhead-1 (Caenorhabditis elegans, UniProt P34707); assay type: functional
# T7 sequence (P34707 whole entry): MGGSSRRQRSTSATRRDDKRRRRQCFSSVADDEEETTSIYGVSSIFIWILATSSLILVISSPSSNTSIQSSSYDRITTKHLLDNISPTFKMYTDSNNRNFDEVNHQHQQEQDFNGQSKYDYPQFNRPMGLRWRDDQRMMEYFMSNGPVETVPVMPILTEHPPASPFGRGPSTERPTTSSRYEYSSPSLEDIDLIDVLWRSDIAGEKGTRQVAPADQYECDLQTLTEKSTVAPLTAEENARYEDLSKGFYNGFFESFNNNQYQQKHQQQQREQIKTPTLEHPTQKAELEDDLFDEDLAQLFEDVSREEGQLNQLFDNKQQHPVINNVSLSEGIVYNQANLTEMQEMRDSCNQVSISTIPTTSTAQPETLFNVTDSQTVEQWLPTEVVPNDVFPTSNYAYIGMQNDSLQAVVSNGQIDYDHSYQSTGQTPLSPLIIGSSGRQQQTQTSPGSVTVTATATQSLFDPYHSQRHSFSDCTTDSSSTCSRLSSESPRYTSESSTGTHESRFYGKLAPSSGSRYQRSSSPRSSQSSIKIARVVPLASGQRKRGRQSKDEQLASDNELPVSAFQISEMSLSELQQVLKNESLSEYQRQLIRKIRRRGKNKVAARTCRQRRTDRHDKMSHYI
Compound,AC50 [1],IC50 [2],IC50 [3],IC50 [4],IC50 [5],also measured
CCCNc1nc2nc3ccccn3c(=O)c2cc1C(=O)NCCN1CCOCC1,32.4 µM (active),–,–,–,–,–
O=C(Nc1ccc(NC(=O)c2cccs2)c(Cl)c1)c1cccs1,–,24.3 µM (active),6.62 µM (active),17.4 µM (active),27.6 µM (active),–
Cc1nnc2c(N3CCN(CCO)CC3)nc3ccccc3n12,57.7 µM (active),–,–,–,–,–
COc1ccc(N2C(=O)CC(Sc3nc[nH]n3)C2=O)c(OC)c1 (stereo not drawn),–,–,–,–,–,IC50 [6]: > 50 µM (not active)
Cc1c(CN2CCCCC2)c(O)n(CCO)c(=O)c1C#N,–,–,–,–,–,IC50 [6]: > 50 µM (not active)
O=C(/C=C/c1cccs1)c1ccc(N2CCOCC2)cc1,–,5.47 µM (active),2.77 µM (active),6.94 µM (active),5.04 µM (active),IC50 [7]: > 100 µM (inactive)
CN1CCN(CCCNC(=O)c2cc3c(=O)oc4ccccc4c3s2)CC1,38.1 µM (active),–,–,–,–,–
O/C(=C\c1nc2ccccc2[nH]1)c1cccs1,–,8.18 µM (active),7.98 µM (active),9.98 µM (active),13.1 µM (active),–
O=c1c2ccccc2oc2cc(NCCCN3CCOCC3)ccc12,23.3 µM (active),–,–,–,–,–
CCN(CC)CCNC(=O)c1cc2cc3ccc(OC)cc3nc2o1,40.7 µM (active),–,–,–,–,–
CC(=O)c1sc(N/N=C\c2ccccc2O)nc1C,–,10.3 µM (active),3.4 µM (active),11 µM (active),16.3 µM (active),–
O=C(Cc1ccccc1F)Nc1ccc(SC(F)F)cc1,–,> 100 µM (inactive),13.7 µM (active),41.8 µM (active),> 100 µM (inactive),–
